Data: patent US20240383908A1, “SYNTHESIS AND APPLICATION OF PHOSPHATASE DEGRADER” (HINOVA PHARMACEUTICALS INC., priority 2021, published 2024)
Where a name gives a salt, the structure may show the parent alone.

Columns and labels:
Assay type in all cases: cell-based
[1] = molecular target: T1, SHP2 protein (Homo sapiens, UniProt Q06124); test: Degradation activity on SHP2 protein in MV-411 cells (Western blot, DC50); set-up: endogenous in cells; details: MV411 cells, 24 hours, read-out: Degradation activity for differenct cell lines MV411 (DC50)
T1 sequence (Q06124 1-593): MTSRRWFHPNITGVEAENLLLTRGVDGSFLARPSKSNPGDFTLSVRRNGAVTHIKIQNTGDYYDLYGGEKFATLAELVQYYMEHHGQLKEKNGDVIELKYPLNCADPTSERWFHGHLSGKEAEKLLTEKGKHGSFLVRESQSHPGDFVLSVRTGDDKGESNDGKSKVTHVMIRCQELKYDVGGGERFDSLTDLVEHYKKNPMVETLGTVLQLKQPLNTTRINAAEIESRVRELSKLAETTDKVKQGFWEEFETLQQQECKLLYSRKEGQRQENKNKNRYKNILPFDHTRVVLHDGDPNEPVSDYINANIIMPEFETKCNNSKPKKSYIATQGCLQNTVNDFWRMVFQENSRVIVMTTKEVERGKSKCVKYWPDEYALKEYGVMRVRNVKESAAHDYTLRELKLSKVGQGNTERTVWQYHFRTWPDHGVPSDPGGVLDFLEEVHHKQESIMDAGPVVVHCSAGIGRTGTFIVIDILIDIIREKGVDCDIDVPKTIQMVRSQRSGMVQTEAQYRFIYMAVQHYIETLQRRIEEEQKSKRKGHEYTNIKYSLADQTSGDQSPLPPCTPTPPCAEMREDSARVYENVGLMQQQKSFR
Method in brief: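 Western blot of SHP2 (GAPDH loading control, 30 μg protein/lane) in lysates of MV-411 cells exposed 24 h to final compound concentrations of 100, 10, 3, 1, 0.3 and 0.1 nM (0.1% DMSO). Degradation relative to DMSO set at 100%; DC50 derived by curve fitting.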

[2] = system: NCI-H358; test: Inhibition of cell proliferation, NCI-H358 (CCK-8); details: Homo sapiens, NCI-H358 cells, read-out: Inhibition activity on the proliferation of different cell lines NCI-H358 (IC50)
Method: (§1) (1) MV-411 cells were cultured in the cell culture medium, and then well-growing cells were selected and inoculated in a 96-well plate at 80 μL/well, with 2×10^4 cells/well. The plate was incubated overnight in a 5% CO2 cell incubator at 37° C.
(§2) (2) 10 mM storage solution of each drug was prepared using dimethylsulfoxide (DMSO). The stock solution was diluted in a ratio of 1:3 with DMSO before use, and then the solution was serially diluted in a ratio of 1:3, to obtain 9 gradient concentrations. Each concentration was further diluted with the medium in a ratio of 1:200 (to ensure that the DMSO concentration in the culture system was 0.1%). Two wells were set for each concentration. 20 μL of each compound solution was added to the cell culture well (with a final concentration of 10 μM, 3.3 μM, 1.1 μM . . . ). The plate was gently shaken and mixed. Additionally, 3 negative control wells (only containing cells) and 3 blank control wells (only containing the medium) were included (6 wells were each added with 20 μL of DMSO diluted with the medium in a ratio of 1:200).
(§3) (1) After 5 days of cultivation, 10 μL of CCK-8 was added to each well, and then the plate was further cultured for 3 h at 37° C. in a 5% CO2 cell incubator.
(§4) (2) The absorbance (OD value) was measured at 450 nm with a multifunctional microplate reader. (3) The data were analyzed using the Dose-response-inhibition equation in GraphPad Prism8 software to obtain the IC50 value.
(§5) Using a similar method, the IC50 value (nM) for the inhibitory activity of the compound according to the present invention against different cell lines was obtained, and the results are shown in Table 3 (++++: IC50>5 μM; +++: 1 μM<IC50<5 μM; ++: IC50<1 μM).

[3] = system: MIA Paca-2; test: Inhibition of cell proliferation, MIA Paca-2 (CCK-8); details: Homo sapiens, MIA Paca-2 cells, read-out: Inhibition activity on the proliferation of different cell lines MIA Paca-2 (IC50)
Method: as §1, §2, §3, §4, §5

[4] = molecular target: T1, SHP2 protein; test: Degradation activity on SHP2 protein in MIA Paca-2 cells (Western blot, DC50); set-up: endogenous in cells; host or cells: MIA Paca-2 cells; details: read-out: Degradation activity for differenct cell lines MIA Paca-2 (DC50)
Method in brief: (§6)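 DC50 is the concentration degrading 50% of SHP2 relative to DMSO control. It was derived by fitting Western blot band densitometry (anti-SHP2, GAPDH reference) from cells exposed 24 h to 0.1–100 nM compound in 0.1% DMSO.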

[5] = molecular target: T1, SHP2 protein; test: Degradation activity on SHP2 protein in NCI-H358 cells (Western blot, DC50); set-up: endogenous in cells; details: read-out: Degradation activity for differenct cell lines NCI-H358 (DC50)
Method in brief: as §6

[6] = system: MV-411 cell line; test: Inhibition of cell proliferation, MV-411 (CCK-8); details: Homo sapiens, MV4-11, 120 h, MV411 cells, 5 days, read-out: Inhibition activity on the proliferation of different cell lines MV411 (IC50)
Method: • MV-411 cell line (COBIER, CBP-60522) • FBS (GEMINI, Cat. No. 900-108) • 0.01M PBS (Biosharp, Cat. No. 162262) • IMDM (Hyclone, Cat. No. SH30228.01) • Penicillin-Streptomycin (Gibco, Cat. No. 15140122) • DMSO (Sigma, Cat. No. D5879) • Cell counting kit-8 (Signalway Antibody, Cat. No. CP002) • Centrifuge Tube, 15 ml (Excell Bio, Cat. No. CS015-0001) • Cell Culture Dish, (WHB, Cat. No. CS016-0128) • 96-well cell culture cluster (Corning, Cat. No. 3599)
• (1) Cell culture medium: IMDM medium+10% FBS+1% Pen Strep; • (2) PBS buffer: PBS powder was dissolved in 2 L of ultrapure water and sterilized;
as §1, §2, §3, §4

[7] = system: NCI-H1975; test: Inhibition of cell proliferation, NCI-H1975 (CCK-8); details: Homo sapiens, NCI-H1975 cells, read-out: Inhibition activity on the proliferation of different cell lines NCI-H1975 (IC50)
Method: as §1, §2, §3, §4, §5

[8] = system: KYSE 520; test: Inhibition of cell proliferation, KYSE 520 (CCK-8); details: Homo sapiens, KYSE 520 cells, read-out: Inhibition activity on the proliferation of different cell lines KYSE 520 (IC50)
Method: as §1, §2, §3, §4, §5

## CC1(N)CCN(c2cnc(Sc3cccc(NC(=O)CCCCCCCO[C@H]4CCN(Cc5ccc(COc6cccc7c6CN(C6CCC(=O)NC6=O)C7=O)cc5)C4)c3)cn2)CC1 (some centres unmarked) [Compound 96]
[1]
  DC50: < 0.1 µM
[2]
  IC50: < 1 µM
[3]
  IC50: < 1 µM

## CC1(N)CCN(c2cnc(Sc3cccc(NC(=O)CCCCCCN4CC5(CCN(c6ccc(C(=O)NCc7ccc8c(c7)CN(C7CCC(=O)NC7=O)C8=O)nn6)C5)C4)c3)cn2)CC1 (centres unmarked) [Compound 110]
[1]
  DC50: < 0.1 µM
[2]
  IC50: > 5 µM
[4]
  DC50: 0.1 to 1 µM
[5]
  DC50: 0.1 to 1 µM
[3]
  IC50: > 5 µM

## O=C1CCC(N2Cc3cc(CNC(=O)c4ccc(N5CCC6(CN(CCC(=O)Nc7cccc(Sc8cnc(N9CCC%10(CCNC%10)CC9)cn8)c7)C6)C5)nn4)ccc3C2=O)C(=O)N1 (centres unmarked) [Compound 111]
[1]
  DC50: > 1 µM
[2]
  IC50: 1 to 5 µM
[6]
  IC50: < 1 µM
[3]
  IC50: 1 to 5 µM

## CC1CN(c2ccc(C(=O)NCc3ccc4c(c3)CN(C3CCC(=O)NC3=O)C4=O)nn2)CC(C)N1CCCCCCCCC(=O)Nc1cccc(Sc2cnc(N3CCC(C)(N)CC3)cn2)c1 (centres unmarked) [Compound 138]
[1]
  DC50: < 0.1 µM
[4]
  DC50: < 0.1 µM
[5]
  DC50: < 0.1 µM
[6]
  IC50: < 1 µM

## CN(Cc1ccc2c(c1)CN(C1CCC(=O)NC1=O)C2=O)C(=O)c1ccc(N2CCN(CCCCCCCCC(=O)Nc3cccc(Sc4cnc(N5CCC(C)(N)CC5)cn4)c3)C(C(F)(F)F)C2)nn1 (centres unmarked) [Compound 175]
[1]
  DC50: < 0.1 µM
[3]
  IC50: 1 to 5 µM

## CC1(N)CCN(c2cnc(Sc3cccc(NC(=O)CCCCCCN4CC5(CCN(c6ncc(C(=O)NCc7ccc8c(c7)CN(C7CCC(=O)NC7=O)C8=O)cc6Cl)C5)C4)c3)cn2)CC1 (centres unmarked) [Compound 181]
[1]
  DC50: < 0.1 µM
[4]
  DC50: < 0.1 µM
[5]
  DC50: < 0.1 µM
[3]
  IC50: 1 to 5 µM

## CC1(N)CCN(c2cnc(Sc3cccc(NC(=O)c4ccc(N5CCC(N6CC=C(c7ccc(C(=O)NCc8ccc9c(c8)CN(C8CCC(=O)NC8=O)C9=O)nc7)CC6)C5)cc4)c3)cn2)CC1 (centres unmarked) [Compound 403]
[7]
  IC50: 1 to 5 µM
[4]
  DC50: < 0.1 µM

## C[C@@H]1OCC2(CCN(c3cnc(Sc4cccc(NC(=O)c5ccc(N6CCC(N7CC=C(c8ccc(C(=O)NCc9ccc%10c(c9)CN(C9CCC(=O)NC9=O)C%10=O)nc8)CC7)CC6)c(F)c5)c4)cn3)CC2)[C@@H]1N (some centres unmarked) [Compound 412]
[7]
  IC50: < 1 µM
[8]
  IC50: 1 to 5 µM
[4]
  DC50: < 0.1 µM
[6]
  IC50: 1 to 5 µM

## CC1(N)CCN(c2cnc(Sc3cccc(NC(=O)c4ccc(N5CCC(N6CC=C(c7cnc(C(=O)NCc8ccc9c(c8)CN(C8CCC(=O)NC8=O)C9=O)c(F)c7)CC6)CC5)c(F)c4)c3)cn2)CC1 (centres unmarked) [Compound 414]
[8]
  IC50: 1 to 5 µM
[4]
  DC50: < 0.1 µM
[6]
  IC50: > 5 µM

## Cc1cc(N2CCC(N3CC=C(c4ccc(C(=O)NCc5ccc6c(c5)CN(C5CCC(=O)NC5=O)C6=O)nc4)CC3)CC2)ccc1C(=O)Nc1cccc(Sc2cnc(N3CCC(C)(N)CC3)cn2)c1 (centres unmarked) [Compound 421]
[8]
  IC50: 1 to 5 µM
[4]
  DC50: < 0.1 µM
[5]
  DC50: < 0.1 µM
[6]
  IC50: < 1 µM

## Cc1cc(C(=O)Nc2cccc(Sc3cnc(N4CCC(C)(N)CC4)cn3)c2)ccc1N1CCC(N2CC=C(c3ccc(C(=O)NCc4ccc5c(c4)CN(C4CCC(=O)NC4=O)C5=O)nc3)CC2)CC1 (centres unmarked) [Compound 422]
[8]
  IC50: > 5 µM
[4]
  DC50: < 0.1 µM
[5]
  DC50: < 0.1 µM
[6]
  IC50: 1 to 5 µM

## C[C@@H]1OCC2(CCN(c3cnc(Sc4cccc(NC(=O)c5ccc(N6CCC(N7CC=C(c8ccc(C(=O)NCc9ccc%10c(c9)CN(C9CCC(=O)NC9=O)C%10=O)c(F)c8)CC7)CC6)c(F)c5)c4)cn3)CC2)[C@@H]1N (some centres unmarked) [Compound 482]
[7]
  IC50: < 1 µM
[4]
  DC50: < 0.1 µM

## C[C@@H]1OCC2(CCN(c3cnc(Sc4cccc(NCc5ccc(N6CCC(N7CC=C(c8ccc(C(=O)NCc9ccc%10c(c9)CN(C9CCC(=O)NC9=O)C%10=O)nc8)CC7)CC6)c(F)c5)c4)cn3)CC2)[C@@H]1N (some centres unmarked) [Compound 485]
[7]
  IC50: < 1 µM
[4]
  DC50: < 0.1 µM

## C[C@@H]1OCC2(CCN(c3cnc(Sc4cccc(NC(=O)c5ccc(N6CCC(N7CCN(c8ccc(C(=O)NCc9ccc%10c(c9)CN(C9CCC(=O)NC9=O)C%10=O)c(F)c8)CC7)CC6)cc5)c4)cn3)CC2)[C@@H]1N (some centres unmarked) [Compound 500]
[8]
  IC50: 1 to 5 µM
[4]
  DC50: > 1 µM
[6]
  IC50: < 1 µM

## C[C@@H]1OCC2(CCN(c3cnc(Sc4cccc(NC(=O)c5ccc(N6CCC(N7CCN(c8ccc(C(=O)NCc9ccc%10c(c9)CN(C9CCC(=O)NC9=O)C%10=O)c(F)c8)CC7)CC6)c(F)c5)c4)cn3)CC2)[C@@H]1N (some centres unmarked) [Compound 501, hydrochloride]
[7]
  IC50: 1 to 5 µM
[8]
  IC50: 1 to 5 µM
[4]
  DC50: < 0.1 µM
[6]
  IC50: < 1 µM

## C[C@@H]1OCC2(CCN(c3cnc(Sc4cccc(NC(=O)c5ccc(N6CCC(N7CCN(c8ccc(C(=O)NCc9ccc%10c(c9)CN(C9CCC(=O)NC9=O)C%10=O)cc8F)CC7)CC6)cc5)c4)cn3)CC2)[C@@H]1N (some centres unmarked) [Compound 514]
[8]
  IC50: 1 to 5 µM
[4]
  DC50: > 1 µM
[6]
  IC50: < 1 µM

## C[C@@H]1OCC2(CCN(c3cnc(Sc4cccc(NC(=O)c5ccc(N6CCC(N7CC=C(c8ccc(C(=O)NCc9ccc%10c(c9)CN(C9CCC(=O)NC9=O)C%10=O)nn8)CC7)CC6)c(F)c5)c4)cn3)CC2)[C@@H]1N (stereo partly drawn) [Compound 519, N-{[2-(2,6-oxohexahydropyridine-3-yl)-1-oxo-2,3-dihydro-1H-isoindol-5-yl]methyl}-6-(1-{1-[2-fluoro-4-({[3-({5-[(3S,4S)-4-amino-3-methyl-8-aza-2-oxaspiro[4.5]decan-8-yl]pyrazin-2-yl}thio)phenyl]amino}carbonyl)phenyl]hexahydropyridine-4-yl}-1,2,3,6-tetrahydropyridin-4-yl)-1,2-diazacyclohexane-3-formamide hydrochloride]
[8]
  IC50: 1 to 5 µM
[4]
  DC50: < 0.1 µM
[6]
  IC50: < 1 µM
